According to patent publication US10857128B2, “Methods and compositions for treating inflammatory diseases” (Helmholtz Zentrum München Deutsches Forschungszentrum für …, priority 2017, dated 2020):

Columns and labels:
[1] = system: CCL17 secretion of human Hodgkin lymphoma KM-H2 cells; assay: CCL17 secretion bioassay with KM-H2 cells (ELISA); format: cell-based; details: different concentrations, 24 h
Protocol: Human T cell line KM-H2. The human Hodgkin lymphoma T cell line (KM-H2) was purchased from the Leibniz Institute DSMZ-German Collection of Microorganisms and Cell Cultures, Braunschweig, Germany. 3-5×10^6 KM-H2 cells were grown in 4 mL RPMI 1640 per well in 6-well-plates (Nunc, Wiesbaden, Germany). All eukaryotic cells were cultured in 5% CO2 at 37° C. (HeraCell 240 and Heraeus BDD 6220, Thermo Fisher Scientific, Waltham, USA). Viability of cells after treatment with bacterial supernatants was assessed by trypan blue, 7-AAD and CellTiter-Blue® staining. (FIG. 9A-C)
Quantification of CCL17 and cytokines in eukaryotic cell culture supernatants. CCL17 was quantified in cell culture supernatants of KM-H2 cells using ELISA reagent Quantikine CCL17/TARC, (R&D Systems, Minneapolis, USA) according to the manufacturer's instructions (ELISA reader MRXII, Thermo Fisher Scientifc, Waltham, USA).
Bioassays for screening for immune modulatory activity in probiotic supernatants. Two biological assays based on down-modulation of costimulatory molecules on human DCs, and of CCL17-secretion by a human Hodgkin lymphoma T cell line (KM-H2) were set up. […]
Similarly, 200 μL supernatants were added to 3-5×10^6 KM-H2 cells for 24 h. Supernatants were collected from KM-H2 by centrifugation and stored at −80° C. until quantification of CCL17. […]

[2] = system: gut microbiota; assay: Gut microbial diversity by 16S rRNA barcoding of caecum samples; format: in vivo, Balb/c mice
Protocol: Bacterial 16S rRNA gene amplification and diversity analysis. Diversity analysis of 16S rRNA genes was performed by amplicon sequencing. In the first PCR reaction, bacterial genomic DNA was subjected to 16S rRNA gene amplifications using the primer S-D-Bact-0785-a-S-18 [5′-GGMTTAGATACCCBDGTA-3′] (SEQ ID NO: 1) and S-*-Univ-1100-a-A-15 [5′-[…]-3′] (SEQ ID NO: 2) as already mentioned. The reaction mixture of 25 μL in total was composed of 5 ng×μL-1 template DNA, 10 μM of each primer, 10 mM dNTPs (Fermentas, Vilnius, Lithuania), 5% of dimethyl sulfoxide (Sigma-Aldrich, St. Louis, USA), 5 U×μL-1 of FastStart High Fidelity Polymerase (Roche Diagnostics, Mannheim, Germany), 10× FastStart Buffer, and nuclease-free water (Life Technologies, Carlsbad, Calif., USA). The PCR started with an initialization at 95° C. for 5 min, followed by 28 cycles of denaturation at 94° C. for 45 sec, annealing at 44° C. for 45 sec, and elongation at 72° C. for 45 sec. A final elongation step at 72° C. for 5 min completed the PCR reaction. To minimize contamination with primer dimers, generated fragments were cut out of the gel after standard agarose gel electrophoresis and purified with the NucleoSpin Gel and PCR Clean-up Kit (Macherey-Nagel, Düren, Germany).
During the second PCR, Illumina sequencing adapters as well as dual indices were attached to the purified amplicons using the Nextera XT Index Kit (Illumina, San Diego, Calif., USA). The reaction volume was 50 μL in total and contained 5 μL of genomic DNA, 5 μL of each Nextera XT Index Primer, 25 μl 2× KAPA HiFi HotStart ReadyMix (Kapa Biosystems, Wilmington, Mass., USA), and 10 μL of nuclease-free water (Life Technologies, Carlsbad, Calif., USA). The PCR reaction was performed according to the following thermal profile: 95° C. for 3 min, followed by 8 cycles of 95° C. for 30 sec, 55° C. for 30 sec, 72° C. for 30 sec, and finalized by 72° C. for 5 min. The PCR products were cleaned up with the Agencourt AMPure XP system (Beckman Coulter, Brea, Calif., USA), DNA was quantified and the DNA quality was controlled using the 2100 Bioanalyzer Instrument (Agilent Technologies, Santa Clara, Calif., USA), and sequenced with the MiSeq instrument (Illumina, San Diego, Calif., USA).
For testing prevention of AAI, mice received 50 mM D-tryptophan starting at least three days before the first sensitization until sacrificing on day 25. For microbiome analyses, the caecum was cut off and immediately stored at −80° C. until further processing.
Microbial Diversity. Bacterial diversity was assessed by molecular barcoding of 16S rRNA genes in caecum samples of six animals per group. To this end, DNA was directly extracted from the caecum using a kit based protocol (PowerSoil DNA Isolation Kit, MO BIO Laboratories, Carlsbad, Calif., USA). 315 bp fragments were amplified within the variable region V5 and V6 of the 16S rRNA gene using S-D-Bact-0785-a-S-18[5′-GGMTTAGATACCCBDGTA-3′] (SEQ ID NO: 1) and S-*-Univ-1100-a-A-15 [5′-[…]-3′] (SEQ ID NO: 2) as primers (Klindworth et al., Nucleic Acids Res. 2013 Jan. 7; 41(1):el). Sequencing of amplicons was performed on the Illumina MiSeq platform (Illumina, San Diego, Calif., USA) using paired end technology (see section “Bacterial 16S rRNA gene amplification and diversity analysis” herein). Sequences are deposited in NCBI accession number PRJNA304109.
Reads were analyzed with the software package QIIME. Operational taxonomic units (OTUs) were picked within the 13_8 version of the Greengenes reference database (McDonald et al., ISME J. 2012 March; 6(3):610-8) at a similarity level of 95% sequence identity. Sequences were subsampled to 15000 reads per sample, which reflects the number of reads obtained in the sample with the lowest number of reads after quality control. This number was still sufficient to reach a plateau when collectors' curves were calculated on the basis of OTU95. […]

N[C@H](Cc1c[nH]c2ccccc12)C(=O)O [D-tryptophan]
immune activity of synthetic tryptophan isomers in the CCL17 bioassay [1]: dose dependent immune activity | impact on microbial community composition ([2]; AAI mice): significant | abundance of Ruminococcaceae ([2]; AAI mice with D-Trp): 8.9% | bacterial diversity (alpha-diversity) of AAI mice ([2]; AAI mice, 50 mM in drinking water): increased | abundance of Rikenellaceae ([2]; D-Trp groups): 1.1-2.0% | abundance of Lachnospiraceae ([2]; D-tryptophan treated AAI mice): 20.6% | abundance of Lachnospiraceae ([2]; D-tryptophan treated mice without AAI): 27.5% | relative abundance of Odoribacteraceae ([2]; both groups of supplemented animals): 3.9% | members of the S24-7 family ([2]; mouse, in vivo): neither affected
